T/C data for 26 compounds are collected here from PubChem BioAssay AID330 (DTP/NCI, 2004).

The structures appear in SMILES notation. Where “and” joins values, the source holds several entries; their conditions need not be identical. Equal values may be shown once. Toxic doses and inconclusive results are not listed.

The test relates to P388 leukemia ip, CD2F1 mice, survival T/C. In words: NCI In Vivo Anticancer Drug Screen. Data for tumor model P388 Leukemia (intraperitoneal) in CD2F1 (CDF1) mice. Conditions: endpoint: median survival time, higher = longer survival. An outline of the steps:
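Mice carrying the transplanted tumor received test compound or vehicle. Survival was recorded in each group, and the value is the treated-group measurement divided by that of the vehicle-treated control group.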

The mark [1] stands for this setting: dose: 100.0 mg/kg/injection, schedule: Q04DX002 (ip), vehicle: saline with Tween-80.
The mark [2] stands for this setting: dose: 200.0 mg/kg/injection, schedule: Q04DX002 (ip), vehicle: saline with Tween-80.
Setting [3] is: dose: 60.0 mg/kg/injection, schedule: Q01DX005 (ip), vehicle: saline with Tween-80.
Where [4] appears, read: dose: 120.0 mg/kg/injection, schedule: Q01DX005 (ip), vehicle: saline with Tween-80.
Setting [5] is: dose: 240.0 mg/kg/injection, schedule: Q01DX005 (ip), vehicle: saline with Tween-80.
Setting [6] is: dose: 15.0 mg/kg/injection, schedule: Q01DX005 (ip), vehicle: saline with Tween-80.
Where [7] appears, read: dose: 30.0 mg/kg/injection, schedule: Q01DX005 (ip), vehicle: saline with Tween-80.
The mark [8] stands for this setting: dose: 50.0 mg/kg/injection, schedule: Q01DX005 (ip), vehicle: Klucel (hydroxypropylcellulose) (HPC).
Where [9] appears, read: dose: 100.0 mg/kg/injection, schedule: Q01DX005 (ip), vehicle: Klucel (hydroxypropylcellulose) (HPC).
The mark [10] stands for this setting: dose: 200.0 mg/kg/injection, schedule: Q01DX005 (ip), vehicle: Klucel (hydroxypropylcellulose) (HPC).
The mark [11] stands for this setting: dose: 50.0 mg/kg/injection, schedule: Q01DX009 (ip), vehicle: saline with Tween-80.
Where [12] appears, read: dose: 100.0 mg/kg/injection, schedule: Q01DX009 (ip), vehicle: saline with Tween-80.
The mark [13] stands for this setting: dose: 200.0 mg/kg/injection, schedule: Q01DX009 (ip), vehicle: saline with Tween-80.

Turning to `CC(=O)NC1C=CC(=O)O1` (stereo not given), for the setting “dose: 2.1 mg/kg/injection, schedule: Q01DX010 (ip), vehicle: saline”, the T/C is 104 % of control.
With `COc1ccc(/C=N\N=C(/[O-])c2ccccc2O)cc1.COc1ccc(/C=N\N=C(/[O-])c2ccccc2O)cc1.[Mn+2].[OH3+].[OH3+]`, the T/C runs as follows: (dose: 50.0 mg/kg/injection, schedule: Q04DX002 (ip), vehicle: saline with Tween-80) 107 % of control; under setting [1], 108 % of control; under setting [2], 114 % of control.
For `O=S(=O)(OC1=CCCCCC1)C(F)(F)F`, the T/C (dose: 50.0 mg/kg/injection, schedule: Q01DX009 (ip), vehicle: olive oil, sesame oil, peanut oil) was 106 % of control; the T/C (dose: 100.0 mg/kg/injection, schedule: Q01DX009 (ip), vehicle: olive oil, sesame oil, peanut oil) is 91 % of control; the T/C (dose: 200.0 mg/kg/injection, schedule: Q01DX009 (ip), vehicle: olive oil, sesame oil, peanut oil) was 114 % of control.
`O=C1c2ccccc2C(=O)C1NOCCCCl`: the T/C runs as follows: (dose: 60.0 mg/kg/injection, schedule: Q01DX005 (ip), vehicle: Klucel (hydroxypropylcellulose) (HPC)) 100 % of control; (dose: 120.0 mg/kg/injection, schedule: Q01DX005 (ip), vehicle: Klucel (hydroxypropylcellulose) (HPC)) 99 % of control; (dose: 240.0 mg/kg/injection, schedule: Q01DX005 (ip), vehicle: Klucel (hydroxypropylcellulose) (HPC)) 101 % of control.
Take `O=C1CSC(=S)N1c1ccc(C(F)(F)F)cc1`: the T/C was 93 % of control (dose: 25.0 mg/kg/injection, schedule: Q01DX001 (ip), vehicle: Klucel (hydroxypropylcellulose) (HPC)); 99 % of control (dose: 50.0 mg/kg/injection, schedule: Q01DX001 (ip), vehicle: Klucel (hydroxypropylcellulose) (HPC)); 110 % of control (dose: 100.0 mg/kg/injection, schedule: Q01DX001 (ip), vehicle: Klucel (hydroxypropylcellulose) (HPC)).
Regarding `CSCc1cc(CO)no1`, the T/C runs as follows: under setting [3], 100 % of control; under setting [4], 99 % of control; under setting [5], 106 % of control.
Turning to `C[N+]1(Cc2ccccc2)CCC(O)(C(=O)c2ccccc2)CC1` (stereo not given), the T/C by setting is: under setting [6], 98 % of control; under setting [7], 100 % of control; under setting [3], 104 % of control and 86 % of control.
For the compound `COC(=O)NCN(Cc1ccccc1)C(=O)CCCCCN`, the T/C by setting is: under setting [3], 104 % of control; under setting [4], 100 % of control; under setting [5], 98 % of control.
Take `O=C(Nc1nnc(-c2cc(=O)c3cc(Cl)ccc3o2)s1)c1ccccc1`: the T/C by setting is: (dose: 50.0 mg/kg/injection, schedule: Q01DX005 (ip), vehicle: saline with Tween-80) 92 % of control; (dose: 100.0 mg/kg/injection, schedule: Q01DX005 (ip), vehicle: saline with Tween-80) 87 % of control and 88 % of control; (dose: 200.0 mg/kg/injection, schedule: Q01DX005 (ip), vehicle: saline with Tween-80) 99 % of control and 89 % of control.
In the case of `COc1ccc(Cc2c3cc(OC)c(OC)cc3cc(=O)n2C)cc1OC`, the T/C (dose: 50.0 mg/kg/injection, schedule: Q01DX009 (ip), vehicle: Klucel (hydroxypropylcellulose) (HPC)) was 106 % of control and the T/C (dose: 100.0 mg/kg/injection, schedule: Q01DX009 (ip), vehicle: Klucel (hydroxypropylcellulose) (HPC)) is 106 % of control.
Consider `O=c1cc[nH]c(=S)[nH]1.[Pd]`, for which the T/C reads like this: (dose: 25.0 mg/kg/injection, schedule: Q01DX009 (ip), vehicle: saline) 89 % of control; (dose: 50.0 mg/kg/injection, schedule: Q01DX009 (ip), vehicle: saline) 96 % of control; (dose: 100.0 mg/kg/injection, schedule: Q01DX009 (ip), vehicle: saline) 91 % of control; (dose: 200.0 mg/kg/injection, schedule: Q01DX009 (ip), vehicle: saline) 91 % of control.
Take `CSc1nccc(=O)n1-c1ccc(C)cc1`: the T/C reads like this: under setting [1], 102 % of control; under setting [2], 102 % of control; (dose: 400.0 mg/kg/injection, schedule: Q04DX002 (ip), vehicle: saline with Tween-80) 98 % of control.
Regarding `CN1c2ccccc2S(=O)(=O)n2c(CCc3ccccc3)nnc21`, the T/C under setting [6] is 103 % of control; the T/C under setting [7] was 100 % of control; the T/C under setting [3] is 87 % of control and 97 % of control; the T/C under setting [5] is 90 % of control.
Turning to `CC[C@@]1(O)C[C@H](OC2CC(N)C(O)C(C)O2)c2c(O)c3c(c(O)c2[C@H]1C(=O)OC)C(=O)c1cccc(O)c1C3=O` (stereo not given in full), the T/C is 115 % of control (dose: 1.0 mg/kg/injection, schedule: Q01DX009 (ip), vehicle: water); 116 % of control (dose: 2.0 mg/kg/injection, schedule: Q01DX009 (ip), vehicle: water); 123 % of control (dose: 2.3 mg/kg/injection, schedule: Q01DX009 (ip), vehicle: water); 116 % of control (dose: 12.5 mg/kg/injection, schedule: Q01DX001 (ip), vehicle: water); 86 % of control (dose: 16.0 mg/kg/injection, schedule: Q01DX009 (ip), vehicle: water); 150 % of control (dose: 25.0 mg/kg/injection, schedule: Q01DX001 (ip), vehicle: water).
For `COC(=O)Nc1nc2ccc(CCC(=O)c3c(C)oc(C)c3-c3ccc(NC(C)=O)cc3)cc2[nH]1`, the T/C is, setting by setting: under setting [3], 99 % of control; under setting [4], 99 % of control.
With `Cc1c2cc[n+](C)cc2c(C)c2c1[nH]c1ccccc12`, the T/C was 103 % of control and 117 % of control (dose: 1.25 mg/kg/injection, schedule: Q04DX002 (ip), vehicle: water); 114 % of control and 121 % of control (dose: 2.5 mg/kg/injection, schedule: Q04DX002 (ip), vehicle: water); 122 % of control (dose: 12.5 mg/kg/injection, schedule: Q04DX002 (ip), vehicle: distilled water + Tween-80).
As to `CCc1c(C#N)c(N)c2c(N)c(C(=O)c3ccccc3)sc2c1C`, the T/C reads like this: under setting [8], 89 % of control; under setting [9], 101 % of control; under setting [10], 95 % of control.
In the case of `N#CCC(C#N)N1CCOCC1` (stereo not given), the T/C is, setting by setting: (dose: 25.0 mg/kg/injection, schedule: Q01DX009 (ip), vehicle: saline with Tween-80) 100 % of control; under setting [11], 100 % of control; under setting [12], 100 % of control.
On to `Cc1ccc(Br)cc1CCO`, for which the T/C under setting [8] was 98 % of control and 97 % of control; the T/C under setting [9] was 99 % of control and 100 % of control; the T/C under setting [10] was 100 % of control and 120 % of control.
Regarding `O=C1CNC(=O)N1c1ccccc1`, the T/C by setting is: under setting [12], 103 % of control; under setting [13], 98 % of control; (dose: 400.0 mg/kg/injection, schedule: Q01DX009 (ip), vehicle: saline with Tween-80) 103 % of control.
For the compound `CC(C)=NN(C)/C=N/S(=O)(=O)c1ccccc1`, the T/C is 100 % of control under setting [8], 97 % of control under setting [9] and 98 % of control under setting [10].
As to `CCN(CC)C1=Nc2ccccc2N(c2ccccc2)C(=S)C1`, the T/C runs as follows: under setting [8], 106 % of control; under setting [9], 103 % of control; under setting [10], 100 % of control.
Consider `CCOC(=O)c1cnn(C)c1N`, for which the T/C reads like this: (dose: 66.7 mg/kg/injection, schedule: Q01DX009 (ip), vehicle: saline with Tween-80) 97 % of control; under setting [12], 110 % of control; (dose: 150.0 mg/kg/injection, schedule: Q01DX009 (ip), vehicle: saline with Tween-80) 105 % of control.
As for `O=C(c1ccccc1)N1c2ccccc2N(C(=O)c2ccccc2)C1c1nc2ccccc2n1C(=O)c1ccccc1`, the T/C by setting is: under setting [11], 109 % of control; under setting [12], 100 % of control; under setting [13], 102 % of control.
For the compound `CC(NC(=O)C(CO)NC(=O)CN)C(=O)O` (stereo not given), the T/C reads like this: (dose: 50.0 mg/kg/injection, schedule: Q01DX005 (ip), vehicle: saline) 101 % of control; (dose: 100.0 mg/kg/injection, schedule: Q01DX005 (ip), vehicle: saline) 99 % of control; (dose: 200.0 mg/kg/injection, schedule: Q01DX005 (ip), vehicle: saline) 105 % of control.
For `O=C1OC(=O)C2C3C=CC(C12)C1C2C(=O)OC(=O)C2C31` (stereo not given), the T/C runs as follows: (dose: 100.0 mg/kg/injection, schedule: Q04DX003 (ip), vehicle: saline with Tween-80) 103 % of control; (dose: 200.0 mg/kg/injection, schedule: Q04DX003 (ip), vehicle: saline with Tween-80) 99 % of control; (dose: 400.0 mg/kg/injection, schedule: Q04DX003 (ip), vehicle: saline with Tween-80) 96 % of control; (dose: 600.0 mg/kg/injection, schedule: Q04DX003 (ip), vehicle: saline with Tween-80) 96 % of control.
